Measurements published in patent US20180085345A1, “METHODS OF TRACKING SKIN CONDITIONS USING CYCLOLIGNAN COMPOUNDS” (m. Alphabet 2, L.L.C., priority 2015, published 2018).

Tests used:
[1] = tested on: actinic keratoses; experiment: Randomized, blinded study of topical picropodophyllin solution in actinic keratoses: lesion count in the treatment area; type: in vivo, patients; conditions: topical twice daily for 1 week
Description: To date, 56 patients have been studied to determine the efficacy of picropodophyllin in treating actinic keratoses. The patients were randomized into four groups, and the patients in each group were treated with a solution containing either 0.5%, 1.25%, or 2.0% picropodophyllin (w/v) in propylene glycol, or a placebo constituting only the vehicle propylene glycol. The picropodophyllin solution was prepared in 100% propylene glycol solution. The solutions were prepared aseptically following GMP protocols. The affected areas of the body variously included the scalp, face, arms, and legs. Without knowing which one of the four solutions they were applying, the subjects self-applied one of the solutions to the skin. After initial application, the subjects gently massaged the solutions into their skin. This was done twice daily for 1 week. Lesions (actinic keratosis) were palpated and visualized by a trained lesion counter who is a board certified dermatologist. The same investigator evaluated each subject at each visit for consistency. The subjects were evaluated at baseline, day 3, day 7, day 14, day 28, day 56 and day 90. Within the treatment area, the number of lesions were counted, regardless of their size. The change in the number of lesions (% decline from baseline) within the treatment area was calculated and the results are shown in the table below: […]

[2] = tested on: insulin-like growth factor-1 (IGF-1); conditions: shown in WO 02/102804; cited from earlier work
[3] = cited from earlier work

SMILES: COc1cc([C@@H]2c3cc4c(cc3[C@H](O)[C@H]3COC(=O)[C@@H]23)OCO4)cc(OC)c1OC [PPP, picropodophyllin]
- % Decline from Baseline (number of lesions within the treatment area) ([1]; 0.50% w/v in propylene glycol, 28 days): −56^AB %
- % Decline from Baseline (number of lesions within the treatment area) ([1]; 0.50% w/v in propylene glycol, 56 days): −82^AB %
- % Decline from Baseline (number of lesions within the treatment area) ([1]; 0.50% w/v in propylene glycol, 90 days): −90^AB %
- % Decline from Baseline (number of lesions within the treatment area) ([1]; 1.25% w/v in propylene glycol, 28 days): −53^AB %
- % Decline from Baseline (number of lesions within the treatment area) ([1]; 1.25% w/v in propylene glycol, 56 days): −73^AB %
- % Decline from Baseline (number of lesions within the treatment area) ([1]; 1.25% w/v in propylene glycol, 90 days): −65^AB %
- % Decline from Baseline (number of lesions within the treatment area) ([1]; 2.00% w/v in propylene glycol, 28 days): −17%
- % Decline from Baseline (number of lesions within the treatment area) ([1]; 2.00% w/v in propylene glycol, 56 days): −55^AB %
- % Decline from Baseline (number of lesions within the treatment area) ([1]; 2.00% w/v in propylene glycol, 90 days): −84^AB %
- inhibition of insulin-like growth factor-1 (IGF-1) [2]: potent inhibitor
- solubility in water [3]: nearly completely insoluble
